Measured values as given in patent US5260060A, “Fibrinolytic enzymes” (priority 1991, dated 1993).

What was measured:
Accfib = Accfib (Agkistrodon contortrix contortrix, UniProt P28891); assay: biochemical
thermolysin = molecular target: T1, thermolysin (Bacillus thermoproteolyticus, UniProt P00800); conditions: cited from earlier work
T1 sequence (P00800 233-548): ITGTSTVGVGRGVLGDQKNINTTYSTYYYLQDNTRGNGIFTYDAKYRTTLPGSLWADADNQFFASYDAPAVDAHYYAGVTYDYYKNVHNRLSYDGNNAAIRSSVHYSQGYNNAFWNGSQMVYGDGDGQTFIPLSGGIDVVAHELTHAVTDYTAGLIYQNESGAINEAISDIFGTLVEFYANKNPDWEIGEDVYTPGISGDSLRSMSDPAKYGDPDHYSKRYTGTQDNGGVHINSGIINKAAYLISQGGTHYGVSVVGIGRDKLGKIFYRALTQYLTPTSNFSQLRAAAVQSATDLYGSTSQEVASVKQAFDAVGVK

Sequence of Accfib (P28891 whole entry, looked up): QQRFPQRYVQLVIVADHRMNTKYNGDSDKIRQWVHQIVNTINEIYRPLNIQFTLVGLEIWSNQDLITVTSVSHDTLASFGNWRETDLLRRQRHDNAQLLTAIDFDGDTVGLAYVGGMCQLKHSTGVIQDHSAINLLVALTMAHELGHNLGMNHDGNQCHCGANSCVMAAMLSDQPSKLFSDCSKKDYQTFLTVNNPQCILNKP

CC(C)CC(C(=O)NO)C(=O)N[C@@H](C)C(=O)NCC(N)=O (stereo partly drawn) [Zincov, 2-(N-hydroxycarboxamido)-4-methylpentanoyl-L-alanyl-glycine amide]
Ki (Accfib): 16 mM | Ki (thermolysin): 0.00048 mM
